Experimental data reported in publication PMC5145856 (Frontiers in Cellular Neuroscience, 2016).
Several values for one entry are separate records, joined by “and”; a condition that tells them apart may be missing. Equal entries are not always repeated. Where two headings read alike, the source gives them in different places.

Assays:
OR9/ORco = OR9/ORco (Anopheles gambiae, UniProt A0ABK8FPD1+Q7QCC7); type: cell-based
OR1/ORco [1] = biological target: T1, OR1/ORco (Anopheles gambiae, UniProt Q7QCC7+Q8WTE7); assay: Photina Ca2+ bioluminescence assay in Hi5 cells expressing OR1/ORco; type: cell-based; conditions: for EC50: OR1+ORco, agonist alone
T1 construct: expressed in transfected cells; host or cells: Trichoplusia ni BTI-Tn 5B1-4 HighFive (Hi5) cells, transient transfection with pEIA plasmids
T1 sequence (Q8WTE7 1-417): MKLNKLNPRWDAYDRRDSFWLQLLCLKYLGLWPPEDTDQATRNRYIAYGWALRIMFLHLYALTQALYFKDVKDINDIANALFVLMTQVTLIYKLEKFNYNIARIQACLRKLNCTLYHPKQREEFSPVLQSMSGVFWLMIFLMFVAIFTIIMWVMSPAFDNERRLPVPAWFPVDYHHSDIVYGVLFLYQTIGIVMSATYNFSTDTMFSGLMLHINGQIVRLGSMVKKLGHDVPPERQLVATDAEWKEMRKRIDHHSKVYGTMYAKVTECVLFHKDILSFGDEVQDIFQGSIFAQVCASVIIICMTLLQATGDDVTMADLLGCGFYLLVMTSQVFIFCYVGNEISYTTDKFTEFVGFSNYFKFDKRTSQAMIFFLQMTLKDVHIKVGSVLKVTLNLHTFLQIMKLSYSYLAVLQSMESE
T1 sequence (Q7QCC7 1-478): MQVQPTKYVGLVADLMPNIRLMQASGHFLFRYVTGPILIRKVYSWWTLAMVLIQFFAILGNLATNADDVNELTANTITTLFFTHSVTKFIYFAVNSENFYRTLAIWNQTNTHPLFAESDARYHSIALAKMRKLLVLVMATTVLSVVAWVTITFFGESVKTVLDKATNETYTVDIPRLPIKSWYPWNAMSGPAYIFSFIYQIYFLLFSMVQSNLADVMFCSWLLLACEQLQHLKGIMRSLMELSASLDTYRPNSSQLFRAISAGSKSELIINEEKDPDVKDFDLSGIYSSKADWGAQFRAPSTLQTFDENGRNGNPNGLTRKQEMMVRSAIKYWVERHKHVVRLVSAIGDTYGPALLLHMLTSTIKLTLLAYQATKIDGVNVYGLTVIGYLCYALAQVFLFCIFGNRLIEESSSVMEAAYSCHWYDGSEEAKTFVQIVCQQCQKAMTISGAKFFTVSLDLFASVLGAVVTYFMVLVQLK

OR1/ORco [2] = biological target: T1, OR1/ORco; design: method as in Tsitoura et al., 2015; conditions: agonist alone, ref Tsitoura et al., 2015; cited from earlier work
OR2/ORco [3] = biological target: T2, OR2/ORco (Anopheles gambiae, UniProt Q7QCC7+Q8WTE6); assay: Photina Ca2+ bioluminescence assay in Hi5 cells expressing OR2/ORco; type: cell-based; conditions: for EC50: OR2+ORco, agonist alone
T2 construct: expressed in transfected cells; host or cells: Trichoplusia ni BTI-Tn 5B1-4 HighFive (Hi5) cells, transient transfection with pEIA plasmids
T2 sequence (Q8WTE6 1-378): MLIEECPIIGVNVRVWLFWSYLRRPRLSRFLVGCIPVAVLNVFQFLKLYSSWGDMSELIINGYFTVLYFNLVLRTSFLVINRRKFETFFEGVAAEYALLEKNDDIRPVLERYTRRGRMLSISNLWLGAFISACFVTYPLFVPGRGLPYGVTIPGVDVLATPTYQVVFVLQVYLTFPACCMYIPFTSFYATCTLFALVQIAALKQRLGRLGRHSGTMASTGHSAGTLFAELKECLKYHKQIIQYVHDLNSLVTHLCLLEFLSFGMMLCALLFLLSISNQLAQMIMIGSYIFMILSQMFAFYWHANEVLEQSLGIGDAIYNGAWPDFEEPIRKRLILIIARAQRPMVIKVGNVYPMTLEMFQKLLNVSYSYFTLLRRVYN
T2 sequence (Q7QCC7 1-478): T1 sequence (Q7QCC7 1-478)

OR2/ORco [4] = biological target: T2, OR2/ORco; design: method as in Tsitoura et al., 2015; conditions: agonist alone, ref Tsitoura et al., 2015; cited from earlier work
OR53/ORco = OR53/ORco (Anopheles gambiae, UniProt A0ABK8FS74+Q7QCC7); type: cell-based
ORco [5] = biological target: T3, ORco (Anopheles gambiae, UniProt Q7QCC7); assay: Photina Ca2+ bioluminescence assay in Hi5 cells expressing ORco alone; type: cell-based; conditions: ORco homomer
T3 construct: expressed in transfected cells; host or cells: Trichoplusia ni BTI-Tn 5B1-4 HighFive (Hi5) cells, transient transfection with pEIA.ORco and pEIA.Photina
T3 sequence (Q7QCC7 1-478): T1 sequence (Q7QCC7 1-478)

ORco [6] = biological target: T3, ORco; design: method as in Tsitoura et al., 2015; conditions: ORco homomer; ref Tsitoura et al., 2015; cited from earlier work
[7] = from the fitted dose-response curve, odorant alone

OR53/ORco, sequence (A0ABK8FS74 entry or part of it, one chain of several): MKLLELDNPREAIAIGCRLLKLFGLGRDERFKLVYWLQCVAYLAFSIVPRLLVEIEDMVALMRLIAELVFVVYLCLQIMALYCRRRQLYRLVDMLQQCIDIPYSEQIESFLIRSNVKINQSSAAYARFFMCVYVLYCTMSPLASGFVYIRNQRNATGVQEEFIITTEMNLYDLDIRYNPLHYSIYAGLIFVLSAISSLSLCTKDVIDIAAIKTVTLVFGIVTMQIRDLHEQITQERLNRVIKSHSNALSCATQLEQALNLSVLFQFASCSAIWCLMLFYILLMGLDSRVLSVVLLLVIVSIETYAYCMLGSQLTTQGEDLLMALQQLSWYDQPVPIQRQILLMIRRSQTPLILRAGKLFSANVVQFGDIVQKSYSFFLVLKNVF
OR9/ORco, sequence (A0ABK8FPD1 entry or part of it, one chain of several): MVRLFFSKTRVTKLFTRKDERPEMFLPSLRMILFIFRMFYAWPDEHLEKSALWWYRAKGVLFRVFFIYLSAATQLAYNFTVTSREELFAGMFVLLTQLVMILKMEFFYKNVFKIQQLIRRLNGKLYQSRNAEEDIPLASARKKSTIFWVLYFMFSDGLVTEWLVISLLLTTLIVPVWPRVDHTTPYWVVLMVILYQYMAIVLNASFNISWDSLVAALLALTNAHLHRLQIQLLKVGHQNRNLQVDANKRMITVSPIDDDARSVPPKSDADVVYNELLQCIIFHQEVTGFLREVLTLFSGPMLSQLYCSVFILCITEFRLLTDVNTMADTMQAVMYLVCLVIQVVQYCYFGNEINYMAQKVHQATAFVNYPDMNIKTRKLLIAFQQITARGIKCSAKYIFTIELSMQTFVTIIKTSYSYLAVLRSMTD

CCc1ccccc1O [2EP, 2-Ethylphenol]
Concentration of the odorant at EC20 (OR9/ORco): 35 µM | Functional response of receptor to odorant (OR9/ORco): responded | EC50 (OR9/ORco; OR9+ORco, agonist alone): 77.6 µM | pEC50 ± SE (OR9/ORco; OR9+ORco, agonist alone): 4.110 ± 0.009062 | EC50 (OR9/ORco; OR9+ORco, agonist alone, listed as 2-ethylphenol): ~78 µM

Cc1ccc(O)cc1 [4MP, 4-Methylphenol]
EC50 (OR1/ORco [1]): 1.2 µM | Concentration of the odorant at EC20 (OR1/ORco [1]; [7]): 0.427 µM | EC50 (OR1/ORco [2]): 2.8 µM

c1ccc2[nH]ccc2c1 [IN, Indole]
EC50 (OR2/ORco [3]): 5.5 µM | Concentration of the odorant at EC20 (OR2/ORco [3]; [7]): 3.3 µM | EC50 (OR2/ORco [4]): 3.4 µM

C=CC(C)(O)CCC=C(C)C (stereo not shown) [LIN, Linalool]
Concentration of the odorant at EC20 (OR53/ORco): 105 µM | Functional response of receptor to odorant (OR53/ORco): clear responses | EC50 (OR53/ORco; OR53+ORco, agonist alone): 181 µM | pEC50 ± SE (OR53/ORco; OR53+ORco, agonist alone): 3.742 ± 0.04453 | EC50 (OR53/ORco; OR53+ORco, agonist alone, listed as linalool): ~180 µM

CCc1ccc(NC(=O)CSc2nnc(-c3ccncc3)n2CC)cc1 [OA, N-(4-ethylphenyl)-2-((4-ethyl-5-(4-pyridinyl)-4H-1,2,4-triazol-3-yl)thio)acetamide]
Potentiation magnitude at EC20 of odorant (OR1/ORco [1]; 10 µM OA (ORcoRAM2), 4MP at EC20 (427nM)): ~ 93 fold | Relative efficacy§ (relative to 100 µM ORx-specific odorant) (OR1/ORco [1]; 10 µM ORcoRAM2 alone vs 100 µM 4MP, Figure 3A): 2.88 fold | Relative efficacy§ (potentiation relative to 100 µM ORx-specific odorant) (OR1/ORco [1]; 10 µM ORcoRAM2 together with 100 µM 4MP vs 100 µM 4MP alone, Figure 3A): 32.45 fold | Relative efficacy# (relative to 100 µM ORx-specific odorant) (OR1/ORco [1]; 100 µM ORcoRAM2 alone vs 100 µM 4MP, Figure 1C): 10,22 fold | EC50 (OR1/ORco [1]): 57 µM and 56.6 µM | Potentiation magnitude at EC20 of odorant (OR2/ORco [3]): ~ 53 fold | Relative efficacy§ (relative to 100 µM ORx-specific odorant) (OR2/ORco [3]; 10 µM ORcoRAM2 alone vs 100 µM IN, Figure 3A): 0.57 fold | Relative efficacy§ (potentiation relative to 100 µM ORx-specific odorant) (OR2/ORco [3]; 10 µM ORcoRAM2 together with 100 µM IN vs 100 µM IN alone, Figure 3A): 8.09 fold | Relative efficacy* (relative to ORco) (OR2/ORco [3]; 100 µM ORcoRAM2, no odorant, OR2/ORco vs ORco homomer, Figure 1A): 3.2 fold | Relative efficacy# (relative to 100 µM ORx-specific odorant) (OR2/ORco [3]; 100 µM ORcoRAM2 alone vs 100 µM IN, Figure 1C): 6.22 fold | EC50 (OR2/ORco [3]): 44 µM and 43.6 µM | Potentiation magnitude at EC20 of odorant (OR9/ORco): ~ 10 fold | Relative efficacy# (relative to 100 µM ORx-specific odorant) (OR9/ORco): 10.4 fold | Relative efficacy* (relative to ORco) (OR9/ORco): 1,05 fold | Relative efficacy§ (potentiation relative to 100 µM ORx-specific odorant) (OR9/ORco): 4.94 fold | Relative efficacy§ (relative to 100 µM ORx-specific odorant) (OR9/ORco): 0.05 fold | EC50 (OR9/ORco; read-out: EC50): 79 µM and 78.7 µM | Relative efficacy* (relative to ORco) (OR53/ORco): 3.87 fold | Relative efficacy§ (potentiation relative to 100 µM ORx-specific odorant) (OR53/ORco): 140.85 fold and 140 fold and 141 fold | Relative efficacy§ (relative to 100 µM ORx-specific odorant) (OR53/ORco): 16.3 fold | EC50 (OR53/ORco; read-out: EC50): 57 µM and 56.6 µM | EC50 (ORco [5]): 97 µM and 96.6 µM | EC50 (ORco [5]; listed as OrcoRAM2): 100 µM | EC50 (ORco [6]): 59 µM and 58.9 µM
